The subject of one test is Jurkat cells. In words: IL-2 secretion assay in CD3/CD28-activated Jurkat cells (AlphaLISA). The test is classed as cell-based. The conditions noted are these: Homo sapiens, CD3/CD28 T Cell Activator, 24 h, IL-2 AlphaLISA. A digest of the protocol: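 Jurkat cells (50,000/well) were preincubated 1 h at 37° C with compound in a 16-point 1:2 series spanning 10 μM to 300 pM final. Cells were then activated with CD3/CD28 T cell activator, and secreted IL-2 was read by AlphaLISA. EC50 came from 4-parameter logistic fits.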
For orientation: Bead proximity is the source of the signal in Alpha formats.

In a further test the target is T1, Cbl-b (Homo sapiens, UniProt Q13191).
T1 construct: biotin (biotinylated)
T1 sequence (Q13191 whole entry, species assumed): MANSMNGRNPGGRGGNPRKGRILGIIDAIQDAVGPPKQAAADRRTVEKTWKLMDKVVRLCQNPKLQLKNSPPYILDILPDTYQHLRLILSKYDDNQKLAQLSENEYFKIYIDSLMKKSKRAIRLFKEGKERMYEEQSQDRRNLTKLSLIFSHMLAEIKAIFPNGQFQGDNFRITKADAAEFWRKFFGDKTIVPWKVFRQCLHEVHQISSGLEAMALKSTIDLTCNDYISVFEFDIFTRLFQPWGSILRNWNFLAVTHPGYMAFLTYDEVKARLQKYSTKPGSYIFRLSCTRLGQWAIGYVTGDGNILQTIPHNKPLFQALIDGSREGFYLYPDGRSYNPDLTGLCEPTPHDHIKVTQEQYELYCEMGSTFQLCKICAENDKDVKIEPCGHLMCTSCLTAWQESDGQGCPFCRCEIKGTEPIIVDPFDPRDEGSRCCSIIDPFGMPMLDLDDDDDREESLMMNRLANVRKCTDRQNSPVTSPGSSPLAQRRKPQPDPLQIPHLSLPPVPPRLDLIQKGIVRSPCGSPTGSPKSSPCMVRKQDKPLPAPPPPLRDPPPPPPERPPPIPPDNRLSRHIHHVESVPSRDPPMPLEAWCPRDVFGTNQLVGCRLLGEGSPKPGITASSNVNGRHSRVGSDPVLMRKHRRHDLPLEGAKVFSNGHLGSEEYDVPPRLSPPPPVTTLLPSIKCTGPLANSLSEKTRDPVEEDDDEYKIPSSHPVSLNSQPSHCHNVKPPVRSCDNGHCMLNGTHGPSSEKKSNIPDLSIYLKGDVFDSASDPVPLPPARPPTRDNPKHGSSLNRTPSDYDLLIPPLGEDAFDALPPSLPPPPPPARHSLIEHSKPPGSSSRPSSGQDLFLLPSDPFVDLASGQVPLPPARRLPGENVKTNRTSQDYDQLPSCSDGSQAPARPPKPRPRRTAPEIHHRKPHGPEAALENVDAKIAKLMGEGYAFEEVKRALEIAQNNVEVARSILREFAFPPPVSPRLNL
Nature of the test: Cbl-b probe displacement HTRF binding assay. To be noted: 0.4 nM biotinylated Cbl-b, 150 nM BODIPY probe. A digest of the protocol: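 Biotinylated Cbl-b was preincubated with compound for 60 min at room temperature in HEPES/NaCl/Triton/TCEP/BSA buffer. BODIPY probe was added for 15 min, followed by streptavidin-terbium, and the HTRF signal was read. Displacement was normalised to DMSO and no-protein controls, and affinity was obtained from a four-parameter dose-response fit.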
On the technique in general: Time-resolved FRET reads energy transfer from a long-lived donor to a nearby acceptor.

One may read the EC50 as the concentration giving half of the maximal effect. One may read the IC50 as the concentration that gives 50% inhibition. Read a high IC50 as weaker potency.

`Cn1cnnc1C1(c2cccc(-n3cc(C4CC4)c4cc(CNCC5(CO)CC5)[nH]c4c3=O)c2)CC(F)(F)C1` [Example 85, 4-cyclopropyl-6-{3-[3,3-difluoro-1-(4-methyl-4H-1,2,4-triazol-3-yl)cyclobutyl]phenyl}-2-[({[1-(hydroxymethyl)cyclopropyl]methyl}amino)methyl]-1H,6H,7H-pyrrolo[2,3-c]pyridin-7-one] displayed a half-maximal effective concentration (EC50) with Jurkat cells of 0.1 to 1 µM. Further, the concentration for half-maximal inhibition (IC50) at Cbl-b was < 0.1 µM.

In the test with Jurkat cells, `Cn1cnnc1C1(c2cccc(-n3cc(C4CC4)c4cc(CN5CCOC6(CC6)C5)[nH]c4c3=O)c2)CC(F)(F)C1` [Example 86, 4-cyclopropyl-6-{3-[3,3-difluoro-1-(4-methyl-4H-1,2,4-triazol-3-yl)cyclobutyl]phenyl}-2-({4-oxa-7-azaspiro[2.5]octan-7-yl}methyl)-1H,6H,7H-pyrrolo[2,3-c]pyridin-7-one] showed an EC50 of 1 to 5 µM. Further, at Cbl-b, the IC50 was 0.1 to 1 µM.

For the compound `Cn1cnnc1C1(c2cccc(-n3cc(C4CC4)c4cc(CN[C@@H]5CCCS(=O)(=O)C5)[nH]c4c3=O)c2)CC(F)(F)C1` [Example 87, (3R)-3-{[(4-cyclopropyl-6-{3-[3,3-difluoro-1-(4-methyl-4H-1,2,4-triazol-3-yl)cyclobutyl]phenyl}-7-oxo-1H,6H,7H-pyrrolo[2,3-c]pyridin-2-yl)methyl]amino}-1λ^6-thiane-1,1-dione], the EC50 in the test with Jurkat cells was > 5 µM. In addition, the IC50 on Cbl-b fell in the range of 0.1 to 1 µM.

Regarding `Cn1cnnc1C1(c2cccc(-n3cc(C4CC4)c4cc(CN5CCC6(CC6)C5)[nH]c4c3=O)c2)CC(F)(F)C1` [Example 88, 2-({5-azaspiro[2.4]heptan-5-yl}methyl)-4-cyclopropyl-6-{3-[3,3-difluoro-1-(4-methyl-4H-1,2,4-triazol-3-yl)cyclobutyl]phenyl}-1H,6H,7H-pyrrolo[2,3-c]pyridin-7-one], the EC50 with Jurkat cells was < 0.1 µM. Further, the IC50 at Cbl-b was < 0.1 µM.

Compound `Cn1cnnc1C1(c2cccc(-n3cc(C4CC4)c4cc(CNC5(CF)CCC5)[nH]c4c3=O)c2)CC(F)(F)C1` [Example 89, 4-cyclopropyl-6-{3-[3,3-difluoro-1-(4-methyl-4H-1,2,4-triazol-3-yl)cyclobutyl]phenyl}-2-({[1-(fluoromethyl)cyclobutyl]amino}methyl)-1H,6H,7H-pyrrolo[2,3-c]pyridin-7-one] came in with a 50% effective concentration (EC50) in the test on Jurkat cells of 0.1 to 1 µM. In addition, the IC50 on Cbl-b was < 0.1 µM.

As for `Cn1cnnc1C1(c2cccc(-n3cc(C4CC4)c4cc(CNc5ccc(Cl)cc5F)[nH]c4c3=O)c2)CC(F)(F)C1` [Example 90, 2-{[(4-chloro-2-fluorophenyl)amino]methyl}-4-cyclopropyl-6-{3-[3,3-difluoro-1-(4-methyl-4H-1,2,4-triazol-3-yl)cyclobutyl]phenyl}-1H,6H,7H-pyrrolo[2,3-c]pyridin-7-one], the EC50 in the test on Jurkat cells was > 5 µM. At Cbl-b, the IC50 was > 5 µM.

With `Cn1cnnc1C1(c2cccc(-n3cc(C4CC4)c4cc(CN[C@@H]5CCOC5)[nH]c4c3=O)c2)CC(F)(F)C1` [Example 91, 4-cyclopropyl-6-{3-[3,3-difluoro-1-(4-methyl-4H-1,2,4-triazol-3-yl)cyclobutyl]phenyl}-2-{[(oxolan-3-yl)amino]methyl}-1H,6H,7H-pyrrolo[2,3-c]pyridin-7-one], in the test with Jurkat cells, the EC50 is > 5 µM. The compound further gave a 50% inhibitory concentration (IC50) at Cbl-b of 0.1 to 1 µM.

On to `Cn1cnnc1C1(c2cccc(-n3cc(C4CC4)c4cc(CN[C@H]5COC[C@@H]5O)[nH]c4c3=O)c2)CC(F)(F)C1` [Example 92], for which the EC50 in the test with Jurkat cells is > 5 µM. At Cbl-b, this compound displayed an IC50 of 0.1 to 1 µM.

Take `Cn1cnnc1C1(c2cccc(-n3cc(C4CC4)c4cc(CN5CC[C@@H](F)[C@H](O)C5)[nH]c4c3=O)c2)CC(F)(F)C1` [Example 93, 4-cyclopropyl-6-{3-[3,3-difluoro-1-(4-methyl-4H-1,2,4-triazol-3-yl)cyclobutyl]phenyl}-2-{[(3R,4R)-4-fluoro-3-hydroxypiperidin-1-yl]methyl}-1H,6H,7H-pyrrolo[2,3-c]pyridin-7-one]: the EC50 with Jurkat cells fell in the range of 1 to 5 µM. This compound displayed a concentration for half-maximal inhibition (IC50) on Cbl-b of 0.1 to 1 µM.

The values are drawn from patent US20260028336A1 (Arcus Biosciences, Inc., priority 2022, published 2026).
